# Data reported in patent US10071095B2, “1,2,4-triazolo [4,3-A] pyridine derivatives and their use for the treatment of neurological and psychiatric disorders” (JANSSEN PHARMACEUTICALS, INC., priority 2009, dated 2018).
# Like-named read-outs stand apart in the source and are kept apart here. Marks after values point to notes of the source that are not given here.
# Assays:
# REM sleep in rats = test: Sleep wake electroencephalography (SW-EEG) in rats; format: in vivo
# Description: Sleep Wake Electroencephalography (SW-EEG) in Rats
# SW-EEG analyses are a highly sensitive read-out of a compound's central functional activity that may provide additional insight in the potential therapeutic application (i.e. via drug classification fingerprinting). […] Internal efforts have confirmed that this effect is mGlu2 receptor-mediated, i.e. is absent in mGlu2 KO mice. Sleep abnormalities are often associated with CNS disorders; as such, the potential use of mGlu2 modulators could also have benefit in the treatment of CNS disorders in which (REM) sleep aberrations are manifested. More specifically, the combination of a persistent reduction in REM occurrence and an increase in REM latency is one of the key features of the typical SW architecture fingerprint of most clinically active antidepressants.
# We investigated the effects of oral administration of compounds according to the invention on SW organization in rats. The mGlu2/3 receptor agonists LY404039 and LY354740 were also evaluated to allow comparison.
# [1] = test system: memantine-induced 2DG uptake in mouse brain (hippocampus); test: Reversal of memantine-induced brain activation ([14C]2DG uptake) in mice; format: in vivo; conditions: for L.A.D. (lowest active dose for significant reduction of 2DG uptake in hippocampus vs memantine response): mice C57BL/6, s.c., memantine 20 mg/kg s.c., p<0.05; for effect on memantine-induced brain glucose metabolism / 2DG uptake (in words): mouse brain, reference drugs
# Procedure: Reversal of Memantine-Induced Brain Activation in Mice
# NMDA receptor hypofunction is hypothesized to be involved in schizophrenia.
# Autoradiographic assessment of radiolabeled [^14C]-2-deoxyglucose ([^14C]2DG) uptake is commonly used to investigate brain activation. In humans, cerebral blood flow is increased in specific brain regions after administration of a subanaesthetic dose of ketamine.
# Male mice (C57BL/6, weight 24-28 g, fasted overnight; n=10 animals per group) were treated with vehicle or test compound (s.c.) in randomized order (t=0 min). Memantine (20 mg/kg, s.c.) was injected 30 min later (t=30 min). At t=45 min, [^14C]2DG (0.16 μCi/g) was administered intraperitoneally (i.p.), followed by a 45 min uptake period. Animals were decapitated (t=90 min), plasma glucose levels measured, the brain removed, rapidly frozen and stored at −20° C. until sectioned. Brain sections were exposed together to a precalibrated [^14C]standard on film, which was developed after four days of exposure. Local tissue [^14C]concentration (nCi/mg tissue equivalent—TEQ—) in each region of interest was determined.
# Data was analyzed statistically using a two-way ANOVA analysis followed by post-hoc tests (memantine response versus reversal by the compound). The results are shown in table 5 below, expressed as lowest active dose (L.A.D.) required to exert a statistically significant (p<0.05) reduction of 2DG uptake in the hippocampus compared to memantine response.
# [2] = test system: PCP-induced hyperlocomotion in male NMRI mice; test: Phencyclidine (PCP)-induced hyperlocomotion in mice (video tracking); format: in vivo; conditions: for ED50: Mus musculus, read-out: Mice ED50 (mg/kg) PCP-Inh.; for Mice ED50 (mg/kg) PCP-Inh., estimated ED50 (footnote a): estimated ED50 values (n = 3 per dose; 4-fold separation between doses)
# Procedure: (§1) Motor Activity (Video Tracking)
# (§2) Apparatus and General Procedure
# (§3) On the day of experiments, the mice were brought into the procedural room. They were housed individually and allowed to acclimate for at least a half hour prior to testing. Although the studies were conducted during the light cycle (from 8:00 to 16:00 h), the procedure room was only sparsely lit (3 to 30 LUX) to provide better contrast for the video tracking. Local lighting was used for the injection procedures. During each trial, an individual mouse was placed in an open field arena (grey PVC cylinder with a height of 40 cm and a diameter of 22.5 cm). Each arena was placed on an infrared LED (8×8 LEDs)-lit box (white PVC squared box; 40×40 cm^2; height 12.5 cm). Each mouse was placed in the center of the arena and allowed to explore freely for 30 min. After each trial, the arena was cleaned with a wet and subsequently with a dry cleaning cloth. An infrared sensitive tube camera and a white light source (in arena: 4-7 LUX) were mounted to the ceiling above the observation chamber to record and input activity to a computer. Animal behavior was recorded and analyzed using the Noldus Ethovision XT Video Tracking System (Version 3.1; Noldus, Wageningen, The Netherlands). The total distance traveled (cm) was calculated. Data were then exported to data management systems for further analysis and reporting.
# Phencyclidine (PCP)-Induced Hyperlocomotion in Mice
# Test compound or solvent was administered at a pre-defined time before measurement (standard: 30 min) to male NMRI mice that were challenged with phencyclidine (PCP; 5 mg/kg, s.c.) 30 min before measurement. Activity was measured for a period of 30 min.
# [3] = test system: conditioned avoidance response in male Wiga Wistar rats; test: Conditioned avoidance response (CAR) test in rats; format: in vivo; conditions: for ED50: Rattus norvegicus, po, read-out: ED50 (mg/kg) CAR-Inh.
# Description: Conditioned Avoidance Response (CAR) Test
# The apparatus consisted of an inner box surrounded by an outer box. The inner box was composed of four walls of transparent, synthetic material (length×width×height: 30×30×30 cm), an open top, and a grid floor made of 15 pairs of iron bars (2 mm diameter; 6 mm inter-bar distance). Odd and even bars were connected with a source of alternative current (1.0 mA; Coulbourn Instruments Solid State Shocker/Distributor), which could be interrupted by a switch. The outer box was composed of the same material (length×width×height: 40×40×36 cm), also with an open top, with a distance of 5 cm between the inner and outer box on all sides. To decrease the amount of environmental stimuli, three walls of the outer box were made non-transparent. The front wall was left transparent to allow the necessary inspection of the animal during the test. The upper edge of the outer and inner box served as a target for the rats on which to jump with fore- and hind-paws, respectively.
# Avoidance Conditioning and Selection of Animals
# From their arrival in the laboratory on the experimental day, male Wiga Wistar rats (230±30 g) were housed in individual cages provided with bedding material.
# Latency to avoidance was recorded. The median avoidance response obtained over the three experimental sessions for each rat were used for further calculations.
# [4] = test system: d-amphetamine-induced hyperlocomotion in male NMRI mice; test: d-Amphetamine-induced hyperlocomotion in mice (video tracking); format: in vivo
# Procedure: as §1, §2
# as §3, with “An infrared sensitive tube camera and a white light source (in arena: 4-7 LUX) were mounted to the ceiling above the observation chamber to record and input activity to a computer.” left out, “Data were then exported to data management systems for further analysis and reporting.” left out
# Test compound or solvent was administered at a pre-defined time before measurement (standard: 30 min) to male NMRI mice that were challenged with d-amphetamine (5 mg/kg, s.c.) 30 min before measurement. Activity was measured for a period of 30 min.
# human mGluR2 receptor = biological target: T1, human mGluR2 receptor (Homo sapiens, UniProt Q14416); test: [35S]GTPγS binding assay, positive allosteric modulation (GTPγS-PAM) in presence of EC20 glutamate; format: biochemical; conditions: in presence of glutamate at EC20, average pEC50 if more experiments, ‡ means tested once
# T1 construct: expressed in transfected cells; host or cells: CHO cells
# T1 sequence (Q14416 19-872): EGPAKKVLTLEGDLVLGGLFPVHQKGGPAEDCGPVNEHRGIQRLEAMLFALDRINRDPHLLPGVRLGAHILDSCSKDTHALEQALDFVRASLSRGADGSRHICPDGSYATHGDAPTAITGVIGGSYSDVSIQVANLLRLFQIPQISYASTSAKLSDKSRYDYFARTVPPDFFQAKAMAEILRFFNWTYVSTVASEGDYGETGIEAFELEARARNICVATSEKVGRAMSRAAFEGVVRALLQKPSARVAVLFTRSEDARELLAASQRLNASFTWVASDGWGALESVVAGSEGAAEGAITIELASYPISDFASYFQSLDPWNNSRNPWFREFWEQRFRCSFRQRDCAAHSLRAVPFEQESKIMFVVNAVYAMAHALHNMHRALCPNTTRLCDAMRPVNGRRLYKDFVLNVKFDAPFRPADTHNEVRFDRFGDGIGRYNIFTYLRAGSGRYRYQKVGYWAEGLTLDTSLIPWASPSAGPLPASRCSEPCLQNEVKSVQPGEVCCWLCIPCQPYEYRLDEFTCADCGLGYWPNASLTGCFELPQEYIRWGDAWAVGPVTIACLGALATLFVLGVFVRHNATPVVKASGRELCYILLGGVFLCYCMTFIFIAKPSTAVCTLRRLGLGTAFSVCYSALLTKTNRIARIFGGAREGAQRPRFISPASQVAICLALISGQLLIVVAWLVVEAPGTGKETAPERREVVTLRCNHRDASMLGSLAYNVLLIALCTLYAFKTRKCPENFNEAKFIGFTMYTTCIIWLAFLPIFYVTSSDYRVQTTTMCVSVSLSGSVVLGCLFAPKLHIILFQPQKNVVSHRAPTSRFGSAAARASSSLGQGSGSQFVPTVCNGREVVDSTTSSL
# Summary of the method: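 Membranes from butyrate-stimulated CHO cells expressing human mGluR2 (7 μg protein) preincubated 30 min at 30°C with compound plus ~EC20 glutamate in HEPES pH 7.4, 100 mM NaCl, 3 mM MgCl2, 10 μM GDP, 10 μg/ml saponin. [35S]GTPγS (0.1 nM) incorporation over 30 min at 30°C measured by filtration and scintillation counting.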
# [5] = compound administered orally (*); a)/b) = estimated ED50 values
# [6] = not marked * (not oral; injection per method); b) = estimated ED50 values (n = 3 per dose)
# [7] = mice, inhibition of PCP-induced hyperlocomotion
Compound,L.A.D. (lowest active dose for significant reduction of 2DG uptake in hippocampus vs memantine response) [1],ED50 [2] [mg/kg],inhibition of PCP-induced hyperlocomotion in mice (in words) ([2]; mice),inhibition of the conditioned avoidance response in rats (in words) [3],"ED50 [3, 5] [mg/kg]",GTPγS - hR2 PAM pEC50 (human mGluR2 receptor),also measured
"FC(F)(F)c1c(N2CCC(c3ccccc3)CC2)ccn2c(CC3CC3)nnc12 [compound 43, 3-(Cyclopropylmethyl)-7-(4-phenyl-1-piperidinyl)-8-(trifluoromethyl)-1,2,4-triazolo[4,3-a]pyridine]","≤2.5 mg/kg, s.c.",5.4,inhibited,inhibited,16.3,–,"effect of subchronic treatment on REM sleep effect (in words) (REM sleep in rats; once daily dosing for 7 days, 3, 10 and 30 mg/kg, p.o.): did not diminish the effects; ED50 [3, 6]: 2.35 mg/kg; ED50 ([4]; Mus musculus, sc, male NMRI mice, s.c., d-amphetamine 5 mg/kg s.c., criterion total distance <5500 counts, read-out: ED50, inhibition of amphetamine-induced hyperlocomotion): 37 mg/kg; activity against d-amphetamine-induced hyperlocomotion in mice (in words) ([4]; mice): active"
"O=C(CCCN1CCC(O)(c2ccc(Cl)cc2)CC1)c1ccc(F)cc1 [haloperidol, reference compound]",–,–,–,–,–,–,effect on memantine-induced brain glucose metabolism / 2DG uptake (in words) [1]: inactive
"N[C@@]1(C(=O)O)CS(=O)(=O)[C@H]2[C@H](C(=O)O)[C@H]21 [LY404039, reference compound]",–,–,–,–,–,–,"effect on REM sleep (in words) (REM sleep in rats; 3 mg/kg, p.o.): affect REM sleep; effect on memantine-induced brain glucose metabolism / 2DG uptake (in words) [1]: inhibited"
"FC(F)(F)Cc1nnc2c(Cl)c(N3CCC(F)(c4ccccc4)CC3)ccn12 [compound 3, 8-Chloro-7-(4-fluoro-4-phenyl-1-piperidinyl)-3-(2,2,2-trifluoroethyl)-1,2,4-triazolo[4,3-a]pyridine]","≤2.5 mg/kg, s.c.",15.2,inhibited,inhibited,14.1,6.94,"ED50 [3, 6]: 10.7 mg/kg"
CC1(c2ccccc2)CCN(c2ccn3c(CC4CC4)nnc3c2C(F)(F)F)CC1 [compound 151],"10 mg/kg, s.c.",–,inhibited,–,–,7.48,"Mice ED50 (mg/kg) PCP-Inh., estimated ED50 (footnote a) [2, 7]: 12.6 ^a) mg/kg"
N[C@@]1(C(=O)O)CC[C@H]2[C@H](C(=O)O)[C@H]21 [LY354740],–,–,–,–,–,–,"lowest active dose, decrease in REM sleep (REM sleep in rats; acute dosing, s.c.): 3 mg/kg; effect of subchronic treatment on REM sleep effect (in words) (REM sleep in rats; once daily dosing for 7 days, 1, 3, 10 mg/kg, s.c.): led to tolerance"
FC(F)(F)Cc1nnc2c(Cl)c(N3CCC4(CC3)COc3ccccc34)ccn12 [compound 98],"≤10 mg/kg, s.c.",–,–,–,–,6.75,"Mice ED50 (mg/kg) PCP-Inh. ([2]; mice, inhibition of PCP-induced hyperlocomotion, dose at which 50% of the tested animals show the effect): >40 mg/kg"
Fc1ccc(N2CCN(c3ccn4c(CC(F)(F)F)nnc4c3Cl)CC2)c(F)c1 [compound 97],"≤10 mg/kg, s.c.",–,inhibited,inhibited,–,6.3,"Mice ED50 (mg/kg) PCP-Inh., estimated ED50 (footnote a) [2, 7]: 6.3 ^a) mg/kg; ED50 (mg/kg) CAR-Inh. [3, 5]: 32*^b) mg/kg; ED50 (mg/kg) CAR-Inh. [3, 6]: 16^b) mg/kg"
"FC(F)(F)C1(c2ccccc2)CCN(c2ccn3c(CC4CC4)nnc3c2Cl)CC1 [compound 15, 8-Chloro-3-(cyclopropylmethyl)-7-(4-trifluoromethyl-4-phenyl-piperidin-1-yl)-1,2,4-triazolo[4,3-a]pyridine]",–,> 10,–,–,≥ 40,6.75,melting point: 276.7 °C
"CC1(C)OC2(CCN(c3ccn4c(CC5CC5)nnc4c3C(F)(F)F)CC2)c2ccccc21 [compound 112, 1′-[3-cyclopropylmethyl-8-(trifluoromethyl)[1,2,4]triazolo[4,3-a]pyridin-7-yl]-3,3-dimethyl-3H-spiro[benzo[c]furan-1,4′-piperidine]]","≤2.5 mg/kg, s.c.",2,inhibited,–,–,–,melting point: 207.7 °C; EC50 (human mGluR2 receptor; read-out: GTPγS - hR2 PAM pEC50 (converted)): 6.46 nM
